In patent US8293769B2, “CSF-1R inhibitors, compositions, and methods of use” (Novartis AG, priority 2008, dated 2012) one finds inhibition data, which are given here for 19 compounds.

Test [1] has as its target T1, cytoplasmic domain of the human CSF-1R (Homo sapiens, UniProt P07333).
T1 construct: Recombinant protein corresponding to the cytoplasmic domain of the human CSF-1R; purchased Invitrogen Corporation, Carlsbad, Calif; PV3249
T1 sequence (P07333 539-972 limits assumed): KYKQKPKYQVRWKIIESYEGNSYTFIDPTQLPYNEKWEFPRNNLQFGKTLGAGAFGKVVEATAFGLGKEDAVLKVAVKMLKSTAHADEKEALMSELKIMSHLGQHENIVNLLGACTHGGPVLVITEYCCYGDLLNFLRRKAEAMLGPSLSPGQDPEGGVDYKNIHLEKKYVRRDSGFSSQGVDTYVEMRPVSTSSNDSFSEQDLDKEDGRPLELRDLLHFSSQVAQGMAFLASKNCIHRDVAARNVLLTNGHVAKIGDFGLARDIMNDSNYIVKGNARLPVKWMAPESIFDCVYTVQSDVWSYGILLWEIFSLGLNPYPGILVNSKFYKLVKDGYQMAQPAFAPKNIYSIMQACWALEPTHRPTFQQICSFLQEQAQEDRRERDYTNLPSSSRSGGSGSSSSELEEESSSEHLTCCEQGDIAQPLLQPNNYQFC
Briefly: In vitro kinase assay for CSF-1R (AlphaScreen). Format: biochemical. As to conditions: tested at about 1 μM; read-out: CSF1RK 1 percent inhibition. The method, boiled down: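 Recombinant CSF-1R cytoplasmic domain (4 nM) phosphorylated biotinylated peptide (0.05 μM) at 1.0 μM ATP in HEPES with Mg2+/Mn2+, 2 h at room temperature, compounds from 25 μM in 3-fold steps. AlphaScreen anti-phosphotyrosine PT66 detection; IC50 by non-linear regression.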

The target of test [2] is T2, cKIT (Homo sapiens, UniProt P10721).
T2 construct: The kinase domain of cKIT was assayed in 50 mM Hepes; purchased Upstate 14-559
T2 sequence (P10721 589-937 limits assumed): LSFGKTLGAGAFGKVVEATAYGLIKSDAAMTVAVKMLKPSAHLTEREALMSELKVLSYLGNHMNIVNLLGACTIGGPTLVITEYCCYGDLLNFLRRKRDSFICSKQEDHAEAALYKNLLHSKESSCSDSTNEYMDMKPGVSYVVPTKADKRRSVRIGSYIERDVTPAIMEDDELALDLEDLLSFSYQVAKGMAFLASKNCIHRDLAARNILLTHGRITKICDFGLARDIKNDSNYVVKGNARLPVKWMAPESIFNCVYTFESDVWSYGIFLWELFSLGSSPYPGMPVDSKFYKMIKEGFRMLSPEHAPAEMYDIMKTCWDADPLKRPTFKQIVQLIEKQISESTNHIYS
Briefly: cKIT kinase in vitro biochemical assay (alphascreen). Particulars: tested at about 1 μM; read-out: CKIT percent inhibition.

For test [3], the target named is T3, PDGFRb (Homo sapiens, UniProt P09619).
T3 construct: The kinase domain of PDGFRβ was assayed in 50 mM Hepes; purchased Invitrogen P3082
T3 sequence (P09619 600-962 limits assumed): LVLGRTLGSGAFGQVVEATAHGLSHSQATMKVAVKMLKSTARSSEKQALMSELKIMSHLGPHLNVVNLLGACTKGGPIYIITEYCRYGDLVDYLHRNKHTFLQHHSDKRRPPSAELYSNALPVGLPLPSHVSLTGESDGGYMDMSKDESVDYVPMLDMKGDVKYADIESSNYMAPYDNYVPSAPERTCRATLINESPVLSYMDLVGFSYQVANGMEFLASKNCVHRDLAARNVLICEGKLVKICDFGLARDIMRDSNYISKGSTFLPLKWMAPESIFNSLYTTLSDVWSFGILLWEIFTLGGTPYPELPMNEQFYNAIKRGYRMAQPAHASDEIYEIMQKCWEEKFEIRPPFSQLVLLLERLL
Briefly: PDGFRb kinase in vitro biochemical assay (alphascreen). As to conditions: tested at about 1 μM; read-out: PDGF RK BETA percent inhibition. In general terms: In Alpha technology, singlet oxygen from a donor bead excites a nearby acceptor bead.

The test system of test [4] is MNFS60 (murine AML cells). Briefly: Cell viability assay in MCSF dependent MNFS60 cells (Cell Titer Glo). The class given is cell-based. Particulars: Mus musculus; tested at about 1 μM; MCSF 10 ng/mL, 72 hrs; read-out: CPEC50 MNFS60MCSF percent inhibition. How it is done:
Cell viability was assessed by Cell Titer Glo, Promega. MNFS60 (murine AML cells) were seeded in TC treated 96-well plates at a density of 5,000 cells per well in RPMI-1640, 10% FBS, and 1% Penicillin Streptomycin prior to addition of compound. Test compounds were serially diluted (3 fold) in DMSO to 500× the final concentration. For each concentration of test compound, 2 μl (500×) aliquots of compound or 100% DMSO (control) were diluted in 500 μl of culture medium that contained 2× final concentration of growth factor MCSF for 2× concentration and then diluted 1× on the cells. Final concentration of MCSF is 10 ng/mL. Cells were incubated for 72 hrs at 37° C., 5% CO2. After the incubation 100 μl Cell Titer Glo is added to each well to determine viable cells. The assay was performed according to the manufacturer's instruction (Promega Corporation, Madison, Wis. USA). Each experimental condition was performed in triplicate. Raw data was imported in Abase and EC50s calculated with XL-fit data analysis software: Relative light units of wells that contained cells without MCSF in the media and as a consequence didn't grow were defined as 100% inhibited.

What is called inhibition is the relative decrease from the control value, in per cent.

For `Clc1ccncc1Oc1ccc2nc(NCC3CCCCC3)sc2c1` [Compound 1, 6-(4-chloropyridin-3-yloxy)-N-(cyclohexylmethyl)benzo[d]thiazol-2-amine], the inhibition at 1 µM in test [1] is 100%; in test [2], 66%; in test [3] it was 34%; in test [4] it was 22%.

Consider `O[C@@H]1CCCC[C@H]1Nc1nc2ccc(Oc3cnccc3Cl)cc2s1` [Compound 7, (1R,2R)-2-(6-(4-chloropyridin-3-yloxy)benzo[d]thiazol-2-ylamino) cyclohexanol], for which the inhibition at 1 µM in test [1] amounted to 100%; in test [2] it was 25%; in test [3], 11%; in test [4], 42%.

As for `Nc1cc(Oc2ccc3nc(NCC4CCCCC4)sc3c2)ncn1` [Compound 8, 6-(6-aminopyrimidin-4-yloxy)-N-(cyclohexylmethyl) benzo[d]thiazol-2-amine], the inhibition at 1 µM worked out at 100% in test [1], 75% in test [2], 46% in test [3] and 30% in test [4].

For the compound `Nc1cc(Oc2ccc3nc(N[C@@H]4CCCC[C@H]4O)sc3c2)ncn1` [Compound 9, (1R,2R)-2-(6-(6-aminopyrimidin-4-yloxy)benzo[d]thiazol-2-ylamino) cyclohexanol], the inhibition at 1 µM in test [1] came to 97%; in test [2], 13%; in test [3], 2%; in test [4] it was 15%.

Take `CNC(=O)c1cc(Oc2ccc3nc(NCC4CCCCC4)sc3c2)nc(OC)n1` [Compound 10, 6-(2-(Cyclohexylmethylamino)benzo[d]thiazol-6-yloxy)-2-methoxy-n-methylpyrimidine-4-carboxamide]: the inhibition at 1 µM is 96% in test [1], 16% in test [2], 5% in test [3] and 27% in test [4].

`CNc1cc(Oc2ccc3nc(NCC4CCCCC4)sc3c2)ncn1` [Compound 13, N-(cyclohexylmethyl)-6-(6-(methylamino)pyrimidin-4-yloxy)benzo[d]thiazol-2-amine]: the inhibition at 1 µM was 98% in test [1], 42% in test [2], 30% in test [3] and 18% in test [4].

Regarding `COc1cc2ncnc(Oc3ccc4nc(NCC5CCCCC5)sc4c3)c2cc1OC` [Compound 17, N-(cyclohexylmethyl)-6-(6,7-dimethoxyquinazolin-4-yloxy)benzo[d] thiazol-2-amine], the inhibition at 1 µM in test [1] was 100%; in test [2], 99%; in test [3], 98%; in test [4] it was 100%.

With `O[C@@H]1CCCC[C@H]1Nc1nc2ccc(Oc3ncnc4ccccc34)cc2s1` [Compound 18, (1R,2R)-2-(6-(quinazolin-4-yloxy)benzo[d]thiazol-2-ylamino)cyclohexanol], the inhibition at 1 µM in test [1] is 100%; in test [2] it was 22%; in test [3], 11%; in test [4], 38%.

Regarding `COc1cc2ncnc(Oc3ccc4nc(N[C@@H]5CCCC[C@H]5O)sc4c3)c2cc1OC` [Compound 19, (1R,2R)-2-(6-(6,7-dimethoxyquinazolin-4-yloxy)benzo [d]thiazol-2-ylamino) cyclohexanol], the inhibition at 1 µM in test [1] was found to be 100%; in test [2], 34%; in test [3], 30%; in test [4], 100%.

Regarding `Cn1cc(-c2cc(Oc3ccc4nc(NCC5CCCCC5)sc4c3)ncn2)cn1` [Compound 20, N-(cyclohexylmethyl)-6-(6-(1-methyl-1H-pyrazol-4-yl)pyrimidin-4-yloxy)benzo[d]thiazol-2-amine], the inhibition at 1 µM in test [1] came to 100%; in test [2], 99%; in test [3], 82%; in test [4], 96%.

Turning to `Cn1cc(-c2nccc(Oc3ccc4nc(NCC5CCCCC5)sc4c3)n2)cn1` [Compound 21, N-(cyclohexylmethyl)-6-(2-(1-methyl-1H-pyrazol-4-yl)pyrimidin-4-yloxy) benzo[d]thiazol-2-amine], the inhibition at 1 µM was 100% in test [1], 100% in test [2], 92% in test [3] and 100% in test [4].

For `Cn1cc(-c2cc(Oc3ccc4nc(N[C@@H]5CCCC[C@H]5O)sc4c3)ncn2)cn1` [Compound 22, (1R,2R)-2-(6-(6-(1-methyl-1H-pyrazol-4-yl)pyrimidin-4-yloxy)benzo[d]thiazol-2-ylamino) cyclohexanol], the inhibition at 1 µM is 100% in test [1], 29% in test [2], 11% in test [3] and 100% in test [4].

Regarding `Cn1cc(-c2nccc(Oc3ccc4nc(N[C@@H]5CCCC[C@H]5O)sc4c3)n2)cn1` [Compound 23, (1R,2R)-2-(6-(2-(1-methyl-1H-pyrazol-4-yl)pyrimidin-4-yloxy)benzo[d]thiazol-2-ylamino) cyclohexanol], the inhibition at 1 µM is 100% in test [1], 19% in test [2], 7% in test [3] and 100% in test [4].

Take `c1cc(-n2cncn2)cc(Oc2ccc3nc(NCC4CCCCC4)sc3c2)n1` [Compound 24, 6-(4-(1H-1,2,4-triazol-1-yl)pyridin-2-yloxy)-N-(cyclohexylmethyl)benzo[d]thiazol-2-amine]: the inhibition at 1 µM in test [1] was determined as 44%; in test [2], 7%; in test [3], 9%; in test [4] it was 0%.

Consider `Cn1nccc1-c1cc(Oc2ccc3nc(N[C@@H]4CCCC[C@H]4O)sc3c2)ncn1` [Compound 25, (1R,2R)-2-(6-(6-(1-methyl-1H-pyrazol-5-yl)pyrimidin-4-yloxy)benzo[d]thiazol-2-ylamino) cyclohexanol], for which the inhibition at 1 µM in test [1] is 69%; in test [2], 22%; in test [3], 0%; in test [4] it was 14%.

With `Cn1nccc1-c1nccc(Oc2ccc3nc(N[C@@H]4CCCC[C@H]4O)sc3c2)n1` [Compound 26, (1R,2R)-2-(6-(2-(1-methyl-1H-pyrazol-5-yl)pyrimidin-4-yloxy)benzo[d]thiazol-2-ylamino) cyclohexanol], the inhibition at 1 µM turned out to be 100% in test [1], 24% in test [2], 20% in test [3] and 19% in test [4].

Take `Nc1ccc(-c2nccc(Oc3ccc4nc(N[C@@H]5CCCC[C@H]5O)sc4c3)n2)cn1` [Compound 29, (1R,2R)-2-(6-(2-(6-aminopyridin-3-yl)pyrimidin-4-yloxy)benzo[d]thiazol-2-ylamino)cyclohexanol]: the inhibition at 1 µM in test [1] came out at 100%; in test [2] it was 13%; in test [3], 11%; in test [4] it was 76%.

With `Nc1ccc(-c2cc(Oc3ccc4nc(N[C@@H]5CCCC[C@H]5O)sc4c3)cnc2-c2ccc(N)nc2)cn1` [Compound 108, (1R,2R)-2-(6-(5,6-bis(6-amino-pyridin-3-yl)pyridin-3-yloxy)benzo[d]thiazol-2-ylamino)cyclohexanol], the inhibition at 1 µM in test [1] turned out to be 93%; in test [2], 10%; in test [3], 23%.

With `O[C@@H]1CCCC[C@H]1Nc1nc2ccc(Oc3cnc(-c4cccnc4)c(-c4cccnc4)c3)cc2s1` [Compound 109, (1R,2R)-2-(6-(5,6-bis(pyridin-3-yl)pyridin-3-yloxy)benzo[d]thiazol-2-ylamino)cyclohexanol], the figures for the inhibition at 1 µM in test [1], in test [2] and in test [3] were 48%, 11% and 16%, respectively.
